Tests used:
Type in all cases: binding
Siderocalin (LCN2) [1] = target: T1, Siderocalin (LCN2) (Homo sapiens, UniProt P80188); experiment: ITC; competition with c-di-[…]GMP cross-linking
T1 construct: recombinant human LCN2 (rLCN2) without a signal peptide fragment

[2] = target: T2, Siderocalin (LCN2), rLCN2-W79A (Homo sapiens, UniProt P80188, W99A); experiment: ITC
T2 construct: recombinant human LCN2 (rLCN2) without a signal peptide fragment

STING = target: T3, STING (Homo sapiens, UniProt Q86WV6); experiment: UV cross-linking with c-di-[…]GMP, SDS-PAGE autoradiography (STING as positive control)
T3 construct: gene STING1

Siderocalin (LCN2) [3] = target: T1, Siderocalin (LCN2); experiment: ITC ([…], n=[…]); UV cross-linking with c-di-[…]GMP and cold competition

T1 sequence (P80188 21-198): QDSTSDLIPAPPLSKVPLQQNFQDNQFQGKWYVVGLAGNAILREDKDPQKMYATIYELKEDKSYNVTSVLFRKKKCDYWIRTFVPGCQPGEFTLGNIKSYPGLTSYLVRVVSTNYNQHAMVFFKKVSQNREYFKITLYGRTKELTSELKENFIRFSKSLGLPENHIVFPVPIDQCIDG
T2 sequence (P80188 21-198 W99A): as the sequence (P80188 21-198) above, with W79A counted along it
T3 sequence (Q86WV6 whole entry): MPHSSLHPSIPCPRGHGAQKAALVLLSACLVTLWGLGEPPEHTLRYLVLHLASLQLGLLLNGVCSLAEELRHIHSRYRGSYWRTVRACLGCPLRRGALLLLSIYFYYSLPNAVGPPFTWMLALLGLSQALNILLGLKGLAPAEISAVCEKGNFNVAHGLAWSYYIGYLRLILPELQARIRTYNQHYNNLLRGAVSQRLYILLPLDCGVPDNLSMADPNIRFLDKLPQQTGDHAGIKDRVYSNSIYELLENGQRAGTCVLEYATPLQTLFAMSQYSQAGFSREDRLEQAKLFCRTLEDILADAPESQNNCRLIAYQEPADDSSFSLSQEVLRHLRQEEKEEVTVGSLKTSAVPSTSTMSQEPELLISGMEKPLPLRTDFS

Structure (SMILES) | Kd (Siderocalin (LCN2) [1]) | Kd [2] | UV cross-linking with c-di-[32P]GMP, SDS-PAGE autoradiography (STING as positive) (STING) | Kd (Siderocalin (LCN2) [3])
O=C(N[C@H]1COC(=O)[C@@H](NC(=O)c2cccc(O)c2[O-])COC(=O)[C@@H](NC(=O)c2cccc(O)c2[O-])COC1=O)c1cccc(O)c1[O-].[Fe+3] [ferric enterobactin] | 240 ± 30 nM | 250 ± 50 nM | – | –
Nc1nc2c(ncn2[C@@H]2O[C@@H]3COP(=O)(O)O[C@H]4[C@@H](O)[C@H](n5cnc6c(=O)[nH]c(N)nc65)O[C@@H]4COP(=O)(O)O[C@H]3[C@H]2O)c(=O)[nH]1 [c-di-GMP] | – | – | STING, as a positive control, could clearly bind to the second messenger as indicated by an autoradiograph signal | 1630 ± 50 nM

Source: paper PMC4595737, “Cyclic diguanylate monophosphate directly binds to human siderocalin and inhibits its antibacterial activity” (Nature Communications, 2015)
